Measured values as given in US4618682A, “2-amino-4,5-dihydro-1H-imidazole-1-carboxanilides” (McNeilab, Inc., priority 1985, dated 1986).
Structures can show the parent of a compound that is named as a salt.

Assays:
[1] = test system: Spontaneously hypertensive rat; assay: Rodent Antihypertensive Screen (arterial pressure and heart rate, aortic cannula); assay type: in vivo, adult spontaneously hypertensive rats (Charles River); details: for Duration / Effect on heart rate / Max. decr. in MAP: spontaneously hypertensive rat; for antihypertensive activity compared with corresponding rearranged N-aryl-N'-(4,5-dihydro-1H-imidazol-2-yl) ureas IV: versus corresponding ureas IV
Source text: This test evaluates compounds for effects on arterial pressure and heart rate. In this test, the arterial pressure of adult spontaneously hypertensive rats (Charles River) is monitored directly via an aortic cannula. Rats are anesthetized with an inhalation anesthetic (methoxyflurane). The left carotid artery is isolated and cannulated. The tip of the cannula is advanced to the aorta and the cannula is exteriorized behind the neck at the level of the scapula. Animals are placed in individual cages and allowed to recover from the anesthetic and are kept unrestrained. The arterial cannula is connected to the pressure transducer which is attached to the recorder. Heart rate is determined from the arterial pressure recording. The test compounds are administered either orally (p.o.) by gavage or by intraperitoneal (i.p.) injection. The arterial pressure and heart rate are monitored for a minumum of 24 hours. A test compound is considered to be active as an antihypertensive agent if the mean arterial pressure (MAP) indicates a fall of >15 mm of Hg. Each animal serves as his own control. The results of this test employing at least 3 rats per dose level for each compound and performed with various compounds of the present invention are shown in Table I.

[2] = test system: Gastric fistula rat; assay: acute gastric fistula rat test (antisecretory screen); assay type: in vivo, Female Sprague-Dawley rats; details: for inhibition in vivo at 20 mg/kg: intraduodenal, 20 mg/kg I.D., read-out: % Inhibition of gastric secretion; for ED50: po, 1 hr
Protocol: The principal antisecretory screen is the acute gastric fistula rat test which is carried out as follows: Female Sprague-Dawley rats are used for this study. The weights range from 125-250 gms; however, weights in any given test have a range of ±20 gms. The rats are fasted 24 hours before testing, water is given ad lib. At the time of fasting, the rats are placed in individual cages with wide mesh bottoms. This eliminates the problem of cannibalism and coprophagia. On the day of testing, the rats are weighed beforehand to determine the weight range and to allow for even distribution. Surgery is carried out under light ether anesthesia. As soon as the rat is anesthetized, its teeth are removed using a small pinch pliers. A midline incision is made on the abdomen about 11/2 cm long and the stomach is exposed. If, at this point, the stomach is filled with food or fecal material, the rat is discarded except for orally administered rats. In this case, the stomach contents are gently squeezed into the duodenum. Using a 4-0 polyester fiber suture, a purse string stitch is placed on the fundic portion of the stomach taking care to avoid any blood vessels in the area. A small nick is made into the stomach in the center of the purse string and a cannula, consisting of a small vinyl tube with a flange on one end, is put into the stomach and the purse string is closed tightly around the flange. Immediately following this, the rat is dosed intraduodenally using a volume of 0.5 ml per 100 gm body weight. The abdominal wall and skin are closed simultaneously with three to four 18 mm wound clips. The rat is then placed in a box containing a longitudinal slit which allows the cannula to hang freely and the rat is able to move about unencumbered. At the completion of the procedure, the time is marked 0 minutes. The rat is allowed to stabilize for 30 minutes, at which time the collection tube is discarded and replaced with a clean collection tube to receive the gastric juice. Only a one-hour collection is made for a screening study. In evaluation studies, one- and two-hour collections are made. At the end of the study, the cannula is pulled out and the rat is sacrificed. The gastric contents collected are drained into a centrifuge tube and centrifuged to pack down the sediment. The volume is read and a 1 ml aliquot of the supernatant is put into a beaker containing distilled water and titrated to pH 7 using 0.01 N NaOH. Mean values are determined for volume, titratable acid and total acid output where volume equals total ml of gastric juice minus sediment, titratable acid (mEq/1) equals amount of 0.01 N NaOH needed to titrate the acid to pH 7 times 10 and total acid output equals titratable acid times volume. Results are reported in percent inhibition over control values. In studies using oral administration, the drugs are dosed in a volume of 1 ml per 100 gm body weight one hour before surgery (pretreatment equals 90 minutes). In subcutaneous studies, the drug may be given immediately after the surgical procedure (pretreatment equals 30 minutes) or after the 30-minute stabilization period when the collection tube is changed (pretreatment time equals 0 minutes). The volume used in subcutaneous studies is 0.2 ml per 100 gm body weight.

SMILES	Duration ([1]; 35 mg/kg p.o.)	Effect on heart rate ([1]; 35 mg/kg p.o.)	Max. decr. in MAP ([1]; 35 mg/kg p.o.)	inhibition in vivo at 20 mg/kg [2]	ED50 [2]	antihypertensive activity compared with corresponding rearranged N-aryl-N'-(4,5-dihydro-1H-imidazol-2-yl) ureas IV [1]	Duration ([1]; 100 mg/kg p.o.)	Effect on heart rate ([1]; 100 mg/kg p.o.)	Max. decr. in MAP ([1]; 100 mg/kg p.o.)
NC1=NCCN1C(=O)Nc1cccc(C(F)(F)F)c1 [Example 26, 2-Amino-4,5-dihydro-N-(3-trifluoromethylphenyl)-1H-imidazole-1-carboxamide Monohydrochloride Hemihydrate]	2.0 h	-71 beats/min	24 mm Hg	99%					
Cl.NC1=NCCN1C(=O)Nc1cccc(Cl)c1Cl [Example 10, 2-Amino-N-(2,3-dichlorophenyl)-4,5-dihydro-1H-imidazole-1-carboxamide Monohydrochloride]	1.0 h	-66 beats/min	19 mm Hg	70%					
Cl.NC1=NCCN1C(=O)Nc1cccc(Cl)c1.O [Example 11, 2-Amino-N-(3-chlorophenyl)-4,5-dihydro-1H-imidazole-1carboxamide Monohydrochloride Monohydrate]	0.5 h	-26 beats/min	20 mm Hg	77%	14.2 mg/kg				
NC1=NCCN1C(=O)Nc1cc(Cl)cc(Cl)c1 [Example 6, 2-Amino-N-(3,5-dichlorophenyl)-4,5-dihydro-1H-imidazole-1-carboxamide Monohydrochloride Hydrate (16:1)]	1.0 h	-21 beats/min	22 mm Hg	75%	22.3 mg/kg				
Cl.NC1=NCCN1C(=O)Nc1ccc(Cl)cc1Cl [Example 9, 2-Amino-N-(2,4-dichlorophenyl)-4,5-dihydro-1H-imidazole-1carboxamide Monohydrochloride]	2.0 h	-49 beats/min	33 mm Hg	71%	14.8 mg/kg				
Cl.NC1=NCCN1C(=O)Nc1cc(Cl)ccc1Cl [Example 7, 2-Amino-N-(2,5-dichlorophenyl)-4,5-dihydro-1H-imidazole-1carboxamide Monohydrochloride]	1.0 h	-48 beats/min	37 mm Hg						
NC1=NCCN1C(=O)Nc1ccccc1Cl [Example 3, 2-Amino-N-(2-chlorophenyl)-4,5-dihydro-1H-imidazole-1-carboxamide Monohydrochloride]	2.0 h	-77 beats/min	35 mm Hg	82%					
Cl.NC1=NCCN1C(=O)Nc1c(Cl)cc(Cl)cc1Cl [Example 12, 2-Amino-4,5-dihydro-N-(2,4,6-trichlorophenyl)-1H-imidazole-1-carboxamide Monohydrochloride]	0.5 h	-39 beats/min	18 mm Hg	97%					
NC1=NCCN1C(=O)Nc1ccccc1 [Example 23, 2-Amino-4,5-dihydro-N-phenyl-1H-imidazole-1-carboxamide Monohydrochloride Hydrate (5:3)]				92%					
Cc1cccc(Cl)c1NC(=O)N1CCN=C1N [Example 15, 2-Amino-N-(2-chloro-6-methylphenyl)-4,5-dihydro-1H-imidazole-1-carboxamide Monohydrochloride Hydrate (8:1)]				77%					
NC1=NCCN1C(=O)Nc1c(Br)cccc1Br [Example 16, 2-Amino-4,5-dihydro-N-(2,6-dibromophenyl)-1H-imidazole-1-carboxamide Monohydrochloride]				64%					
Cl.NC1=NCCN1C(=O)Nc1c(Cl)cccc1Cl [Example 1, 2-Amino-N-(2,6-dichlorophenyl)-4,5-dihydro-1H-imidazole-1-carboxamide Monohydrochloride]	0.5 h	-48 beats/min	32 mm Hg	62%		significantly less antihypertensive activity			
Cc1ccccc1NC(=O)N1CCN=C1N [Example 24, 2-Amino-4,5-dihydro-N-(2-methylphenyl)-1H-imidazole-1-carboxamide Monohydrochloride]				65%					
CCc1cccc(C)c1NC(=O)N1CCN=C1N.Cl [Example 17, 2-Amino-4,5-dihydro-N-(2-ethyl-6-methylphenyl)-1H-imidazole-1carboxamide Monohydrochloride]				91%	24.5 mg/kg				
COc1ccc(NC(=O)N2CCN=C2N)cc1OC [Example 4, 2-Amino-N-(3,4-dimethoxyphenyl)-4,5-dihydro-1H-imidazole-1-carboxamide Monohydrochloride Hydrate (4:1)]							11 h	-215 beats/min	47 mm Hg
COc1cccc(NC(=O)N2CCN=C2N)c1 [Example 19, 2-Amino-4,5-dihydro-N-(3-methoxyphenyl)-1H-imidazole-1carboxamide Monohydrochloride Hydrate (5:1)]				74%					
Cc1ccc(NC(=O)N2CCN=C2N)cc1 [Example 2, 2-Amino-4,5-dihydro-N-(4-methylphenyl)-1H-imidizole-1-carboxamide Monohydrochloride Hydrate (4:1)]	6.0 h	-162 beats/min	54 mm Hg	99%	4.6 mg/kg	more potent antihypertensive activity			
COc1ccc(NC(=O)N2CCN=C2N)cc1.Cl [Example 20, 2-Amino-4,5-dihydro-N-(4-methoxyphenyl)-1H-imidazole-1carboxamide Monohydrochloride]	1.0 h	-38 beats/min	16 mm Hg						
Cc1cccc(C)c1NC(=O)N1CCN=C1N.Cl [Example 5, 2-Amino-N-(2,6-dimethylphenyl)-4,5-dihydro-1H-imidazole-1-carboxamide Monohydrochloride]	1.0 h	-27 beats/min	23 mm Hg	88%		significantly less antihypertensive activity			
Cl.NC1=NCCN1C(=O)Nc1ccccc1C(F)(F)F [Example 25, 2-Amino-4,5-dihydro-N-(2-trifluoromethylphenyl)-1H-imidazole-1-carboxamide Monohydrochloride]	0.5 h	-21 beats/min	32 mm Hg						
NC1=NCCN1C(=O)Nc1ccc(Cl)cc1 [Example 27, 2-Amino-N-(4-chlorophenyl)-4,5-dihydro-1H-imidazole-1-carboxamide Monohydrochloride Hydrate (17:1)]	15 h	-66 beats/min	41 mm Hg	95%	29.3 mg/kg	more potent antihypertensive activity			
Cl.NC1=NCCN1C(=O)Nc1ccc(C(F)(F)F)cc1 [Example 14, 2-Amino-4,5-dihydro-N-(4-trifluoromethylphenyl)-1H-imidazole-1-carboxamide Monohydrochloride]	5.0 h	-98 beats/min	50 mm Hg	70%	35.5 mg/kg				
